Source: patent US10597649B2, “Tau protease compositions and methods of use” (Oligomerix, Inc., priority 2011, dated 2020)

Tests used:
Format in all cases: biochemical
tau 4R2N trimer protease = target: T1, tau 4R2N trimer protease (Homo sapiens, UniProt P10636); test: Peptide assay (tau peptide 335-353, reverse-phase HPLC) used to screen serine protease inhibitors; settings: 1 mM PMSF (also printed 1 μM), one hr at room temperature before peptide substrate
T1 construct: Stabilization buffer enables production of full length monomer, dimer and trimer for tau protease; made in house; host or cells: E. coli BL21 (DE3) Gold
T1 sequence (P10636 1-441 isoform P10636-8): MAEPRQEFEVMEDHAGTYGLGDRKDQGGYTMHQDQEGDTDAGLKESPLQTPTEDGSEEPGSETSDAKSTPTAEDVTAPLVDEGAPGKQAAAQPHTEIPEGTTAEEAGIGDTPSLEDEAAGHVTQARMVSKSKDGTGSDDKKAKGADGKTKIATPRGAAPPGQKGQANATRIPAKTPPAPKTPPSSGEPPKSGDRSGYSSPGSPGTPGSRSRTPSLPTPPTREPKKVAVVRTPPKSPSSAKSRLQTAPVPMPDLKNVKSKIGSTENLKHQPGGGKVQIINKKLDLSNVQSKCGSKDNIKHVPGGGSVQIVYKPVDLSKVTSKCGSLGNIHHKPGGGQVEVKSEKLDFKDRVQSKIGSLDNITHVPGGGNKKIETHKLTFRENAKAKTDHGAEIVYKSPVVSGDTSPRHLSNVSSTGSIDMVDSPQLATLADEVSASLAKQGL
Source text: N-terminal sequencing of fragments using mass spectrometry identified autoproteolytic cut sites. In particular, cutting at the Lys340-Ser341 (340KS341) cut site occurred readily. Therefore, a 19-amino acid peptide corresponding to amino acids 335G to 353L of tau protein was synthesized that contained the KS cut site (340KS341). The reaction was monitored by reverse-phase high-pressure liquid chromatography (HPLC). […] An asterisk marks a non-specific contaminant that was used as a marker. […] 10 μg of tau peptide 335-353 ([…]) (SEQ ID NO:19) was custom synthesized by Genscript (Piscataway, N.J., USA) and 1 mg was dissolved in 1 mL of buffer (25 mM Tris-HCl pH 7.4). […] of peptide was incubated with 11 μg of tau trimer protease in 30 μL buffer 20 hr at 37° C. and analyzed by HPLC [SystemGold® 32Karat™ LC-CE System, Beckman Coulter, Inc., (Indianapolis, Ind.)] using a linear gradient of acetonitrile in 0.1% TFA 0-60% acetonitrile on an analytical C18 column (12.5 cm×2.1 mm, 5 μm, (Supelco, Bellefonte, Pa., USA). 30 μg of peptide was incubated without tau protease as a negative control and analyzed with the same method;
The peptide assay for tau 4R2N trimer activity described in FIG. 5 was used to screen a series of serine protease inhibitors. 1 mM AEBSF was incubated with tau 4R2N trimer for 1 hr at room temperature before addition of the peptide substrate. […] The asterisk indicates an artifactual peak unrelated to the peptide;

[1] = system: tau protein from a specimen of Alzheimer's brain; test: FP-TAMRA labeling of tau immunopurified from AD brain; settings: AD brain lysate treated with PMSF before 2 μM FP-TAMRA probe
Source text: Serine hydrolases include a class of enzymes that include serine proteases. The serine hydrolase superfamily is one of the largest known enzyme families that share a catalytic mechanism that involves a serine nucleophile. Phenylmethanesulfonyl fluoride (PMSF) irreversibly binds to the active site serine of serine hydrolases to inactivate their enzymatic activity and prevents the probe from labeling them. […] Protein was extracted from an AD brain by Dounce homogenization in TPER buffer (ThermoFisher Scientific) with 1 mM EDTA, 1 μg/mL pepstatin A, […] phosphoramidon, phosphatase inhibitor (ThermoFisher Scientific). The lysate was cleared by centrifugation at 10,000×g for 20 min. The supernatant was depleted for biotin using Streptavidin-agarose (ThermoFisher Scientific). A probe specific for active serine hydrolases, fluorophosphonate (FP) labeled with a fluorescent carboxytetramethylrhodamine (TAMRA) tag (ThermoFisher Scientific), was incubated with the lysate at a final concentration of 2 μM. As a control for non-specific labeling, a portion of the lysate was treated with phenylmethanesulfonyl fluoride (PMSF), an irreversible inhibitor of serine hydrolases, including tau protease, before using the FP-TAMRA probe. Biotinylated monoclonal antibody HT7 (ThermoFisher Scientific) was used to capture total tau from the lysate with streptavidin-agarose beads (ThermoFisher Scientific). […]

[2] = Tau protease enzymatic activity of truncated tau peptides (general statement)

Molecule	inhibition of cleavage of the peptide (FIG. 14E) (tau 4R2N trimer protease)	FP-TAMRA labeling of immunocaptured protein bands [1]	tau protease enzymatic activity [2]
O=S(=O)(F)Cc1ccccc1 [PMSF, phenylmethanesulfonyl fluoride]	strongly inhibited	reduced labeling	
TP-118: 118 amino acid truncated tau peptide, 4R2N 268-385 (SEQ ID NO:2)			retain tau protease enzymatic activity
